Measured values: article PMC10175918 (Communications Biology, 2023)
Like-named read-outs stand apart in the source and are kept apart here.

How the values were obtained:
Experiment in all cases: TGFα-shedding assay-based GPCR screening with chimeric Gα subunit proteins
Type in all cases: cell-based
348 GPCRs [1] = target: 348 GPCRs (Homo sapiens, UniProt P21453); settings: 10µM, Favipiravir 100μM
348 GPCRs [2] = target: T1, 348 GPCRs (Homo sapiens, UniProt P25089); settings: 10µM, Favipiravir 100μM
T1 construct: expressed in transfected cells; host or cells: HEK293A
T1 sequence (P25089 1-353): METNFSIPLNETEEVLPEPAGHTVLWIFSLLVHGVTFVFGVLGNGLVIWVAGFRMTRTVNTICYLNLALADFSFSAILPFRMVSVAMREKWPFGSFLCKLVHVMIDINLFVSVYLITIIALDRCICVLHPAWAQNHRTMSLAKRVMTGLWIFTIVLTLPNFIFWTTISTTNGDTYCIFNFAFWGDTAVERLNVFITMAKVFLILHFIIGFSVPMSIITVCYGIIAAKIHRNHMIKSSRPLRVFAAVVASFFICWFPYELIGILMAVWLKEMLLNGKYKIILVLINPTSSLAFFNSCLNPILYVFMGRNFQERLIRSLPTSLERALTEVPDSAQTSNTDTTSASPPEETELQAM

348 GPCRs [3] = target: 348 GPCRs (Homo sapiens, UniProt P30874); settings: 10µM, Favipiravir 100μM
348 GPCRs [4] = target: T2, 348 GPCRs (Homo sapiens, UniProt Q16581); settings: 10µM, Favipiravir 100μM
T2 sequence (Q16581 1-482): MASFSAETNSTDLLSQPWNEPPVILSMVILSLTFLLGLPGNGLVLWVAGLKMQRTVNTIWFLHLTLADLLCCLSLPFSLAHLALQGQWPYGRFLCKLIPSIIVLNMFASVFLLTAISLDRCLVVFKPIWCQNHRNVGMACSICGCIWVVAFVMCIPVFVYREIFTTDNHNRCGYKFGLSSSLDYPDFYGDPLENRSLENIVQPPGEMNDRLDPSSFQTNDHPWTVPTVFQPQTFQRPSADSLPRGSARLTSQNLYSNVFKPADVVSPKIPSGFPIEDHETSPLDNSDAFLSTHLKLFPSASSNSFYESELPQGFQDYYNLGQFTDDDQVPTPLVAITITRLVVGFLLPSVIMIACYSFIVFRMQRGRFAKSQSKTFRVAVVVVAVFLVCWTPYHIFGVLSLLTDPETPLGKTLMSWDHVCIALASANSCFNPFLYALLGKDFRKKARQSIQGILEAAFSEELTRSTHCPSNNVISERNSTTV

348 GPCRs [5] = target: T3, 348 GPCRs (Homo sapiens, UniProt Q5UAW9); settings: 10µM, Favipiravir 100μM
T3 construct: expressed in transfected cells; host or cells: HEK293A

348 GPCRs [6] = target: T4, 348 GPCRs (Homo sapiens, UniProt Q86SQ4); settings: 10µM, Favipiravir 100μM
T4 construct: expressed in transfected cells; host or cells: HEK293A
T4 sequence (Q86SQ4 38-1221): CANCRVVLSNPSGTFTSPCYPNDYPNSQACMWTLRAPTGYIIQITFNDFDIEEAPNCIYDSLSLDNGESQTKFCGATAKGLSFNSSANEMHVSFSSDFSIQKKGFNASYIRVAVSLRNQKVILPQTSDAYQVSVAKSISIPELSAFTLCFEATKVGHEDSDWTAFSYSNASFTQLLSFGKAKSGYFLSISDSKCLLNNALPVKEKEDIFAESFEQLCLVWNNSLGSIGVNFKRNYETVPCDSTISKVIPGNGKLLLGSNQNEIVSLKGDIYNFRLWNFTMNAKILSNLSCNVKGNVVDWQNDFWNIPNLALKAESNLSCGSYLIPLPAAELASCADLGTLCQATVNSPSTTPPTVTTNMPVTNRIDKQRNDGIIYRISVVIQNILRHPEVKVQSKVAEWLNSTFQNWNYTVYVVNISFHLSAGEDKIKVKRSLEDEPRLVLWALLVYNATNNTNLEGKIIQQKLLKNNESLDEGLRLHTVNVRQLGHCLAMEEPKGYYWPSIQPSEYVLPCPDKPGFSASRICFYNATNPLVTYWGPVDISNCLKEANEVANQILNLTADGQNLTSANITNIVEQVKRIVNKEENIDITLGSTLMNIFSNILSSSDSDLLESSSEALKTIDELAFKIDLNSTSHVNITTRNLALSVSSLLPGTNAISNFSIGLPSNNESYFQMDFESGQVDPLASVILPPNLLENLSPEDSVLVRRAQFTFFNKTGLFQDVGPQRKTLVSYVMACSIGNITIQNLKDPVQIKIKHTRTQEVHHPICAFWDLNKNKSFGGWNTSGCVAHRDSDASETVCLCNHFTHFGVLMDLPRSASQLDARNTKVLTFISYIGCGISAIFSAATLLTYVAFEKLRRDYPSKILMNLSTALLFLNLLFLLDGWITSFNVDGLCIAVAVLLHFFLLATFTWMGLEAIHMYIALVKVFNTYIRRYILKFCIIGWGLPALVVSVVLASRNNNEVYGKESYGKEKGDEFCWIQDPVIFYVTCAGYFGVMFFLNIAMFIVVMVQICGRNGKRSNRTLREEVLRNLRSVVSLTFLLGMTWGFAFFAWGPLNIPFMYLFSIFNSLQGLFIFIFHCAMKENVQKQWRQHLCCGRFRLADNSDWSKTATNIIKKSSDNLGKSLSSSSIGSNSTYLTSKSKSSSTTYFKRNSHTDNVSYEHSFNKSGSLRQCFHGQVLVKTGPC

348 GPCRs [7] = target: T5, 348 GPCRs (Homo sapiens, UniProt Q9BZJ6)
T5 construct: expressed in transfected cells; host or cells: HEK293A

348 GPCRs [8] = target: T6, 348 GPCRs (Homo sapiens, UniProt Q9HC97); settings: 10µM, Favipiravir 100μM
T6 construct: expressed in transfected cells; host or cells: HEK293A

[9] = S1PR1 (sphingosine-1-phosphate receptor 1), read-out: % GPCR activation compared to TPA
[10] = FPR3 (formyl peptide receptor 3), read-out: % GPCR activation compared to TPA
[11] = SSTR2 (somatostatin receptor 2), read-out: % GPCR activation compared to TPA
[12] = C3AR1 (complement C3a receptor 1), read-out: % GPCR activation compared to TPA
[13] = GPR157 (G Protein-Coupled Receptor 157), read-out: % GPCR activation compared to TPA
[14] = GPR126 (Adhesion G Protein-Coupled Receptor G6 (ADGRG6)), read-out: % GPCR activation compared to TPA
[15] = GPCR GPR63 (G Protein-Coupled Receptor 63), read-out: % GPCR activation compared to TPA
[16] = GPR35 (G protein-coupled receptor 35), read-out: % GPCR activation compared to TPA
[17] = read-out: % GPCR activation compared to TPA, S1PR1 (sphingosine-1-phosphate receptor 1)
[18] = read-out: % GPCR activation compared to TPA, FPR3 (formyl peptide receptor 3)
[19] = read-out: % GPCR activation compared to TPA, SSTR2 (somatostatin receptor 2)
[20] = read-out: % GPCR activation compared to TPA, C3AR1 (complement C3a receptor 1)
[21] = read-out: % GPCR activation compared to TPA, GPR157 (G Protein-Coupled Receptor 157)
[22] = read-out: % GPCR activation compared to TPA, GPR126 (Adhesion G Protein-Coupled Receptor G6 (ADGRG6))
[23] = read-out: % GPCR activation compared to TPA, GPCR GPR63 (G Protein-Coupled Receptor 63)
[24] = read-out: % GPCR activation compared to TPA, GPR35 (G protein-coupled receptor 35)

T5 sequence (Q9BZJ6 whole entry): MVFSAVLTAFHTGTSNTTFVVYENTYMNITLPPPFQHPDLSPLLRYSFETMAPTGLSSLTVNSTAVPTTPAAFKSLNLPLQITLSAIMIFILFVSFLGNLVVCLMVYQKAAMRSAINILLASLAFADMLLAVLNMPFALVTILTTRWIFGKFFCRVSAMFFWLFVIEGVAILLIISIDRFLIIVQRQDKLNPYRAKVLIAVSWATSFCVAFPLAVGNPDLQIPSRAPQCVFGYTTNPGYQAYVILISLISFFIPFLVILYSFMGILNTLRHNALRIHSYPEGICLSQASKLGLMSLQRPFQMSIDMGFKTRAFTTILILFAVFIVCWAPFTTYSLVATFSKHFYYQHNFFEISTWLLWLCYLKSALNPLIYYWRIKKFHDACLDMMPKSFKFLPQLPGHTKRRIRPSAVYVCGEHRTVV
Sequence of 348 GPCRs (Homo sapiens, UniProt P21453) (P21453 whole entry): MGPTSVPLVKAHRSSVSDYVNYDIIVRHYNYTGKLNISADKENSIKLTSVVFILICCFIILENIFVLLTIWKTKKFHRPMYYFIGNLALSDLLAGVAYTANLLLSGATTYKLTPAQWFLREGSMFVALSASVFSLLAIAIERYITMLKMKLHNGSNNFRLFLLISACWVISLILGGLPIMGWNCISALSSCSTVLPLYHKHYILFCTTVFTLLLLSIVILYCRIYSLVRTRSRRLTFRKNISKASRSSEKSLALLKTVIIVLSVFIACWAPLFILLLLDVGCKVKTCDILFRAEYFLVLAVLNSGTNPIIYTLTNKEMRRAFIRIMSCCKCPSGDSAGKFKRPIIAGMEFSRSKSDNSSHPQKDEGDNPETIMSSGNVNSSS
Sequence of 348 GPCRs (Homo sapiens, UniProt P30874) (P30874 whole entry): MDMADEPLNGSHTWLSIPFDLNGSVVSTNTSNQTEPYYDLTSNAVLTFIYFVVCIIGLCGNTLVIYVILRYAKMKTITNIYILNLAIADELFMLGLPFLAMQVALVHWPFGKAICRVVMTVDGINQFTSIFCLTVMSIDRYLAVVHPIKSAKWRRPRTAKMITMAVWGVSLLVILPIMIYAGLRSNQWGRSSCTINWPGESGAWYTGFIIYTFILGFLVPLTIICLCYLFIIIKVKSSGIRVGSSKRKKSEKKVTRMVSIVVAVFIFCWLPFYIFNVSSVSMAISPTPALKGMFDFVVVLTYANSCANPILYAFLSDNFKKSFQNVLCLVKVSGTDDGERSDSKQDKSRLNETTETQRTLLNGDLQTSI
T3 sequence (Q5UAW9 whole entry): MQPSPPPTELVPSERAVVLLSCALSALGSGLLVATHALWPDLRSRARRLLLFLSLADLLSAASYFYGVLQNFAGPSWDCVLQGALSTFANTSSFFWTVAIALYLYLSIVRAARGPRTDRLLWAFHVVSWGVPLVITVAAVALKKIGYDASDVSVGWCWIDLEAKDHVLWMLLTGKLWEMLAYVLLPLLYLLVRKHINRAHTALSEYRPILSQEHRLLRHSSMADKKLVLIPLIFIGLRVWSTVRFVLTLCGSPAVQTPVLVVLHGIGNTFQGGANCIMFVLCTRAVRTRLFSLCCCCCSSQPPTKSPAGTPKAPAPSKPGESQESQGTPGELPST
T6 sequence (Q9HC97 whole entry): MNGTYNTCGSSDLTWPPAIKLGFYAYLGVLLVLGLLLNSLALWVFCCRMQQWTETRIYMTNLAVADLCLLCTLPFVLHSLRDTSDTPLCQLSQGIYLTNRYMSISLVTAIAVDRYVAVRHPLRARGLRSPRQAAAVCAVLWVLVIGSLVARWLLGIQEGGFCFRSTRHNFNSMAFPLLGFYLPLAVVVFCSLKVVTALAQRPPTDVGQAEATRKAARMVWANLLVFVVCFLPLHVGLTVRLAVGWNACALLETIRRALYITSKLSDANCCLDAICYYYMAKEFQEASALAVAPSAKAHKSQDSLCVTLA

| activation at 10 µM (348 GPCRs [1]; [9]) [%] | activation at 100 µM (348 GPCRs [2]; [10]) [%] | activation at 10 µM (348 GPCRs [3]; [11]) [%] | activation at 10 µM (348 GPCRs [4]; [12]) [%] | activation at 10 µM (348 GPCRs [5]; [13]) [%] | activation at 100 µM (348 GPCRs [6]; [14]) [%] | activation at 10 µM (348 GPCRs [7]; [15]) [%] | activation at 10 µM (348 GPCRs [8]; [16]) [%] | activation at 100 µM (348 GPCRs [7]; GPCR GPR63 (G Protein-Coupled Receptor 63), 100μM, read-out: % GPCR activation compared to TPA) [%] | SMILES | activation at 10 µM (348 GPCRs [1]; [17]) [%] | activation at 100 µM (348 GPCRs [2]; [18]) [%] | activation at 10 µM (348 GPCRs [3]; [19]) [%] | activation at 10 µM (348 GPCRs [4]; [20]) [%] | activation at 10 µM (348 GPCRs [5]; [21]) [%] | activation at 100 µM (348 GPCRs [6]; [22]) [%] | activation at 10 µM (348 GPCRs [7]; [23]) [%] | activation at 10 µM (348 GPCRs [8]; [24]) [%] |
| --- | --- | --- | --- | --- | --- | --- | --- | --- | --- | --- | --- | --- | --- | --- | --- | --- | --- |
| -1.43 | 2.5 | -0.998 | 3.33 | -1.23 | -3.47 | 2.45 | 4.18 | – | N#C[C@@]1(c2ccc3c(N)ncnn23)O[C@H](CO)[C@@H](O)[C@H]1O [GS441524] | – | – | – | – | – | – | – | – |
| -0.836 | 0.4 | -0.842 | 1.69 | -0.889 | -2.03 | – | 3 | -0.607 | NC(=O)c1nc(F)cnc1O [favipiravir, 6-fluoro-3-hydroxy-2-pyrazinecarboxamide] | – | – | – | – | – | – | – | – |
| -2.19 | -1.95 | -0.658 | -0.773 | -0.773 | -3.31 | -0.167 | -3.01 | – | CC(C)C(=O)OC[C@H]1O[C@@H](n2ccc(NO)nc2=O)[C@H](O)[C@@H]1O [molnupiravir] | – | – | – | – | – | – | – | – |
| – | – | – | – | – | – | – | – | – | CCC(CC)COC(=O)[C@H](C)N[P@](=O)(OC[C@H]1O[C@@](C#N)(c2ccc3c(N)ncnn23)[C@H](O)[C@@H]1O)Oc1ccccc1 [remdesivir] | -1.92 | 3.79 | 0.304 | 6.7 | 1.04 | -0.536 | 1.1 | 0.537 |
| – | – | – | – | – | – | – | – | – | CC(C)OC(=O)[C@H](C)N[P@](=O)(OC[C@H]1O[C@@H](n2ccc(=O)[nH]c2=O)[C@](C)(F)[C@@H]1O)Oc1ccccc1 [sofosbuvir] | 0.0873 | -0.773 | -1.14 | -0.133 | 3.51 | -2.49 | 1.22 | -7.86 |
